# Source: ChEMBL document CHEMBL1201861, “Genomics of Drug Sensitity in Cancer screening data, Wellcome Trust Sanger Institute”
# pIC50: −log10 of the molar value.
# What was measured:
# Assay in all cases: cells
# Conditions in all cases: Homo sapiens
# MFH-ino = assay type: functional, cell-based;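 also: growth inhibition of human MFH-ino cells, read out by a cell viability assay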
# Description: SANGER: Inhibition of human MFH-ino cell growth in a cell viability assay.
# TE-9 = assay type: functional, cell-based;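 also: cell growth inhibition, measured with a cell viability readout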
# Description: SANGER: Inhibition of human TE-9 cell growth in a cell viability assay.
# J-RT3-T3-5 = assay type: functional, cell-based;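 also: cell viability assay measuring growth inhibition of human J-RT3-T3-5 cells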
# Description: SANGER: Inhibition of human J-RT3-T3-5 cell growth in a cell viability assay.
# KP-N-YS = assay type: functional, cell-based;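 also: cell viability assay measuring inhibition of cell line growth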
# Description: SANGER: Inhibition of human KP-N-YS cell growth in a cell viability assay.
# GI-1 = assay type: functional, cell-based;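 also: growth inhibition of human GI-1 cells, measured with a cell viability readout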
# Description: SANGER: Inhibition of human GI-1 cell growth in a cell viability assay.
# JAR = assay type: functional, cell-based;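 also: growth inhibition of human JAR cells determined with a cell viability assay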
# Description: SANGER: Inhibition of human JAR cell growth in a cell viability assay.
# NCI-H209 = assay type: functional, cell-based;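 also: growth inhibition of human NCI-H209 cells, measured by a cell viability assay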
# Description: SANGER: Inhibition of human NCI-H209 cell growth in a cell viability assay.
# HEL = assay type: functional, cell-based;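 also: growth inhibition of HEL cells, read out with a cell viability assay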
# Description: SANGER: Inhibition of human HEL cell growth in a cell viability assay.
# LB1047-RCC = assay type: functional, cell-based;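 also: inhibition of cell growth, determined with a cell viability assay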
# Description: SANGER: Inhibition of human LB1047-RCC cell growth in a cell viability assay.
# D283 Med = assay type: functional, cell-based
# Description: SANGER: Inhibition of human D-283MED cell growth in a cell viability assay.
# TE-1 = assay type: functional, cell-based
# Description: SANGER: Inhibition of human TE-1 cell growth in a cell viability assay.
# SW 954 = assay type: functional, cell-based;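 also: growth inhibition of SW954 human cancer cells, read out as cell viability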
# Description: SANGER: Inhibition of human SW954 cell growth in a cell viability assay.
# MZ1-PC = assay type: functional, cell-based;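 also: cell viability assay measuring growth inhibition of human MZ1-PC cells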
# Description: SANGER: Inhibition of human MZ1-PC cell growth in a cell viability assay.
# LS-411N = assay type: functional, cell-based
# LB771-HNC = assay type: functional, cell-based;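 also: growth inhibition of LB771-HNC human cells, read out with a cell viability assay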
# Description: SANGER: Inhibition of human LB771-HNC cell growth in a cell viability assay.
# DB = assay type: functional, cell-based
# Description: SANGER: Inhibition of human DB cell growth in a cell viability assay.
# SK-MEL-1 = assay type: functional, cell-based;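 also: growth inhibition of human SK-MEL-1 cells, read out by a cell viability assay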
# Description: SANGER: Inhibition of human SK-MEL-1 cell growth in a cell viability assay.
# CTB-1 = assay type: functional, cell-based
# Description: SANGER: Inhibition of human CTB-1 cell growth in a cell viability assay.
# ES1 = assay type: functional, cell-based;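 also: growth inhibition of ES1 cells, read out with a cell viability assay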
# Description: SANGER: Inhibition of human ES1 cell growth in a cell viability assay.
# A4-Fuk = assay type: functional, cell-based;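 also: growth inhibition of A4-Fuk cells, read out by a cell viability assay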
# Description: SANGER: Inhibition of human A4-Fuk cell growth in a cell viability assay.
# HDLM-2 = assay type: functional, cell-based;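 also: cell viability assay measuring suppression of HDLM-2 proliferation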
# Description: SANGER: Inhibition of human HDLM-2 cell growth in a cell viability assay.
# TE-11 = assay type: functional, cell-based;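 also: growth inhibition of human TE-11 cells, read out by a cell viability assay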
# Description: SANGER: Inhibition of human TE-11 cell growth in a cell viability assay.
# KGN = assay type: functional, cell-based;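 also: growth inhibition of KGN cells, read out with a cell viability assay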
# Description: SANGER: Inhibition of human KGN cell growth in a cell viability assay.
# MV4-11 = assay type: functional, cell-based, MV-4-11;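 also: cell viability readout measuring growth inhibition of human MV-4-11 cells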
# Description: SANGER: Inhibition of human MV-4-11 cell growth in a cell viability assay.
# GR-ST = assay type: functional, cell-based
# Description: SANGER: Inhibition of human GR-ST cell growth in a cell viability assay.
# NCI-H1838 = assay type: functional, cell-based;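 also: growth inhibition of NCI-H1838 cells, determined with a cell viability readout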
# Description: SANGER: Inhibition of human NCI-H1838 cell growth in a cell viability assay.
# C2BBe1 = assay type: functional, cell-based;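 also: growth inhibition of C2BBe1 cells, read out through a viability assay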
# Description: SANGER: Inhibition of human C2BBe1 cell growth in a cell viability assay.
# A388 = assay type: functional, cell-based;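 also: growth inhibition of human A388 cells, read out with a cell viability assay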
# Description: SANGER: Inhibition of human A388 cell growth in a cell viability assay.
# COR-L88 = assay type: functional, cell-based;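 also: growth inhibition of COR-L88 cells, read out with a cell viability assay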
# Description: SANGER: Inhibition of human COR-L88 cell growth in a cell viability assay.
# ES6 = assay type: functional, cell-based;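 also: growth inhibition of human ES6 cells, read out with a cell viability assay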
# Description: SANGER: Inhibition of human ES6 cell growth in a cell viability assay.
# 697 = assay type: functional, cell-based
# Description: SANGER: Inhibition of human 697 cell growth in a cell viability assay.
# LB831-BLC = assay type: functional, cell-based;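 also: growth inhibition of LB831-BLC cells, read out with a cell viability assay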
# Description: SANGER: Inhibition of human LB831-BLC cell growth in a cell viability assay.
# HCE-4 = assay type: functional, cell-based;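 also: cell viability assay measuring inhibition of growth in the human HCE-4 cell line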
# Description: SANGER: Inhibition of human HCE-4 cell growth in a cell viability assay.
# TE-5 = assay type: functional, cell-based;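 also: inhibition of cell growth, read out by a cell viability assay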
# Description: SANGER: Inhibition of human TE-5 cell growth in a cell viability assay.
# CGTH-W-1 = assay type: functional, cell-based;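 also: growth inhibition of human CGTH-W-1 cells measured by cell viability assay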
# Description: SANGER: Inhibition of human CGTH-W-1 cell growth in a cell viability assay.
# KG-1 = assay type: functional, cell-based;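 also: growth inhibition of KG-1 cells, read out by a cell viability assay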
# Description: SANGER: Inhibition of human KG-1 cell growth in a cell viability assay.
# NCI-H1581 = assay type: functional, cell-based;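 also: cell growth inhibition read out by a viability assay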
# Description: SANGER: Inhibition of human NCI-H1581 cell growth in a cell viability assay.
# SCC-15 = assay type: functional, cell-based;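 also: growth inhibition of SCC-15 cells, read out with a cell viability assay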
# Description: SANGER: Inhibition of human SCC-15 cell growth in a cell viability assay.
# EW-3 = assay type: functional, cell-based;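 also: cell viability assay read-out, IC50 reflects inhibition of growth of the EW-3 cells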
# Description: SANGER: Inhibition of human EW-3 cell growth in a cell viability assay.
# EW-13 = assay type: functional, cell-based;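 also: growth inhibition of EW-13 cells, read out with a cell viability assay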
# Description: SANGER: Inhibition of human EW-13 cell growth in a cell viability assay.
# BB49-HNC = assay type: functional, cell-based;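 also: cell viability assay read-out, reported as inhibition of BB49-HNC cell growth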
# Description: SANGER: Inhibition of human BB49-HNC cell growth in a cell viability assay.
# MS-1 = assay type: functional, cell-based;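 also: growth inhibition of MS-1 cells, read out by cell viability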
# Description: SANGER: Inhibition of human MS-1 cell growth in a cell viability assay.
# MOLT-4 = assay type: functional, cell-based;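 also: growth inhibition of MOLT-4 cells, determined with a cell viability readout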
# Description: SANGER: Inhibition of human MOLT-4 cell growth in a cell viability assay.
# TE-6 = assay type: functional, cell-based;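 also: growth inhibition of TE-6 cells, read out with a cell viability assay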
# Description: SANGER: Inhibition of human TE-6 cell growth in a cell viability assay.
# SBC-1 = assay type: functional, cell-based;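 also: cell viability assay measuring growth inhibition of the SBC-1 cell line, IC50 being the concentration that halves growth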
# Description: SANGER: Inhibition of human SBC-1 cell growth in a cell viability assay.
# SK-PN-DW = assay type: functional, cell-based;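 also: growth inhibition measured with a viability assay on these cells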
# Description: SANGER: Inhibition of human SK-PN-DW cell growth in a cell viability assay.
# ES3 = assay type: functional, cell-based;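 also: growth inhibition of ES3 cells, read out with a cell viability assay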
# Description: SANGER: Inhibition of human ES3 cell growth in a cell viability assay.
# RKO = assay type: functional, cell-based;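 also: growth inhibition of human RKO cells, read out with a cell viability assay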
# Description: SANGER: Inhibition of human RKO cell growth in a cell viability assay.
# K5 = assay type: functional, cell-based
# Description: SANGER: Inhibition of human K5 cell growth in a cell viability assay.
# KM12 = assay type: functional, cell-based;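 also: KM12 cell growth inhibition, read out with a cell viability assay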
# Description: SANGER: Inhibition of human KM12 cell growth in a cell viability assay.
# U-266 = assay type: functional, cell-based
# Description: SANGER: Inhibition of human U-266 cell growth in a cell viability assay.
# LOX IMVI = assay type: functional, cell-based
# Description: SANGER: Inhibition of human LOXIMVI cell growth in a cell viability assay.
# MZ7-mel = assay type: functional, cell-based;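 also: growth inhibition of human MZ7-mel cells, measured by a cell viability assay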
# Description: SANGER: Inhibition of human MZ7-mel cell growth in a cell viability assay.
# EW-16 = assay type: functional, cell-based;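 also: growth inhibition of human EW-16 cells, read out as cell viability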
# Description: SANGER: Inhibition of human EW-16 cell growth in a cell viability assay.
# RPMI-8226 = assay type: functional, cell-based
# Description: SANGER: Inhibition of human RPMI-8226 cell growth in a cell viability assay.
# NB69 = assay type: functional, cell-based;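 also: growth inhibition of NB69 cells, determined by a cell viability assay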
# Description: SANGER: Inhibition of human NB69 cell growth in a cell viability assay.
# GB-1 = assay type: functional, cell-based;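 also: growth of GB-1 cells judged by a viability assay, IC50 marks the concentration inhibiting growth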
# Description: SANGER: Inhibition of human GB-1 cell growth in a cell viability assay.
# NCI-H1355 = assay type: functional, cell-based;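 also: growth inhibition of human NCI-H1355 cells, read out by a cell viability assay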
# Description: SANGER: Inhibition of human NCI-H1355 cell growth in a cell viability assay.
# MOLT-16 = assay type: functional, cell-based;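 also: growth inhibition of human MOLT-16 cells, read out with a cell viability assay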
# Description: SANGER: Inhibition of human MOLT-16 cell growth in a cell viability assay.
# ES8 = assay type: functional, cell-based;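 also: growth inhibition of human ES8 cells, read out with a cell viability assay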
# Description: SANGER: Inhibition of human ES8 cell growth in a cell viability assay.
# JVM-3 = assay type: functional, cell-based;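 also: growth inhibition of human JVM-3 cells, read out with a cell viability assay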
# Description: SANGER: Inhibition of human JVM-3 cell growth in a cell viability assay.
# COLO-684 = assay type: functional, cell-based
# Description: SANGER: Inhibition of human COLO-684 cell growth in a cell viability assay.
# NCI-H1648 = assay type: functional, cell-based
# Description: SANGER: Inhibition of human NCI-H1648 cell growth in a cell viability assay.
# NCI-H526 = assay type: functional, cell-based
# Description: SANGER: Inhibition of human NCI-H526 cell growth in a cell viability assay.
# ACN = assay type: functional, cell-based
# Description: SANGER: Inhibition of human ACN cell growth in a cell viability assay.
# NMC-G1 = assay type: functional, cell-based
# Description: SANGER: Inhibition of human NMC-G1 cell growth in a cell viability assay.
structure (smiles),measurement,setting,value
COc1cc(C)c(Sc2cnc(NC(=O)c3ccc(CNC(C)C(C)(C)C)cc3)s2)cc1C(=O)N1CCN(C(C)=O)CC1 (configuration not stated),pIC50,MFH-ino,5.45
same,pIC50,TE-9,< 4.99
same,pIC50,J-RT3-T3-5,< 4.99
same,pIC50,KP-N-YS,< 4.99
same,pIC50,GI-1,< 4.99
same,pIC50,JAR,< 4.99
same,pIC50,NCI-H209,< 4.99
same,pIC50,HEL,< 4.99
same,pIC50,LB1047-RCC,< 4.99
same,pIC50,D283 Med,< 4.99
same,pIC50,TE-1,< 4.99
same,pIC50,SW 954,5.11
same,pIC50,MZ1-PC,5.42
same,pIC50,LS-411N,5.36
same,pIC50,LB771-HNC,< 4.99
same,pIC50,DB,< 4.99
same,pIC50,SK-MEL-1,< 4.99
same,pIC50,CTB-1,< 4.99
same,pIC50,ES1,5.13
same,pIC50,A4-Fuk,5.79
same,pIC50,HDLM-2,< 4.99
same,pIC50,TE-11,< 4.99
same,pIC50,KGN,< 4.99
same,pIC50,MV4-11,5.23
same,pIC50,GR-ST,< 4.99
same,pIC50,NCI-H1838,< 4.99
same,pIC50,C2BBe1,< 4.99
same,pIC50,A388,< 4.99
same,pIC50,COR-L88,< 4.99
same,pIC50,ES6,5.67
same,pIC50,697,5.18
same,pIC50,LB831-BLC,5.21
same,pIC50,HCE-4,< 4.99
same,pIC50,TE-5,< 4.99
same,pIC50,CGTH-W-1,< 4.99
same,pIC50,KG-1,< 4.99
same,pIC50,NCI-H1581,< 4.99
same,pIC50,SCC-15,< 4.99
same,pIC50,EW-3,5.07
same,pIC50,EW-13,< 4.99
same,pIC50,BB49-HNC,< 4.99
same,pIC50,MS-1,< 4.99
same,pIC50,MOLT-4,< 4.99
same,pIC50,TE-6,< 4.99
same,pIC50,SBC-1,< 4.99
same,pIC50,SK-PN-DW,4.99
same,pIC50,ES3,5.05
same,pIC50,RKO,5.05
same,pIC50,K5,< 4.99
same,pIC50,KM12,5.55
same,pIC50,U-266,< 4.99
same,pIC50,LOX IMVI,< 4.99
same,pIC50,MZ7-mel,< 4.99
same,pIC50,EW-16,5.76
same,pIC50,RPMI-8226,< 4.99
same,pIC50,NB69,5.18
same,pIC50,GB-1,5.04
same,pIC50,NCI-H1355,5.21
same,pIC50,MOLT-16,5.32
same,pIC50,ES8,< 4.99
same,pIC50,JVM-3,< 4.99
same,pIC50,COLO-684,< 4.99
same,pIC50,NCI-H1648,< 4.99
same,pIC50,NCI-H526,< 4.99
same,pIC50,ACN,< 4.99
same,pIC50,NMC-G1,5.15
Cc1nc(Nc2ncc(C(=O)Nc3c(C)cccc3Cl)s2)cc(N2CCN(CCO)CC2)n1 [DASATINIB],pIC50,MFH-ino,7.33
same,pIC50,TE-9,6.06
same,pIC50,J-RT3-T3-5,< 5.89
same,pIC50,KP-N-YS,< 5.89
same,pIC50,GI-1,< 5.89
same,pIC50,JAR,< 5.89
same,pIC50,NCI-H209,< 5.89
same,pIC50,HEL,< 5.89
same,pIC50,LB1047-RCC,8.00
same,pIC50,D283 Med,< 5.89
same,pIC50,TE-1,6.98
same,pIC50,SW 954,7.53
same,pIC50,MZ1-PC,7.51
same,pIC50,LS-411N,< 5.89
same,pIC50,LB771-HNC,< 5.89
same,pIC50,DB,< 5.89
same,pIC50,SK-MEL-1,< 5.89
same,pIC50,CTB-1,< 5.89
same,pIC50,ES1,< 5.89
same,pIC50,A4-Fuk,< 5.89
same,pIC50,HDLM-2,< 5.89
same,pIC50,TE-11,7.10
same,pIC50,KGN,7.71
same,pIC50,MV4-11,< 5.89
same,pIC50,GR-ST,< 5.89
same,pIC50,NCI-H1838,< 5.89
same,pIC50,C2BBe1,7.08
same,pIC50,A388,7.29
same,pIC50,COR-L88,< 5.89
same,pIC50,ES6,7.50
same,pIC50,697,6.70
same,pIC50,LB831-BLC,7.34
same,pIC50,HCE-4,6.58
same,pIC50,TE-5,< 5.89
same,pIC50,CGTH-W-1,7.45
same,pIC50,KG-1,< 5.89
same,pIC50,NCI-H1581,< 5.89
same,pIC50,SCC-15,< 5.89
same,pIC50,EW-3,< 5.89
same,pIC50,EW-13,< 5.89
same,pIC50,BB49-HNC,6.41
same,pIC50,MS-1,< 5.89
same,pIC50,MOLT-4,< 5.89
same,pIC50,TE-6,5.92
same,pIC50,SBC-1,< 5.89
same,pIC50,SK-PN-DW,< 5.89
same,pIC50,ES3,< 5.89
same,pIC50,RKO,6.28
same,pIC50,K5,6.78
same,pIC50,KM12,< 5.89
same,pIC50,U-266,< 5.89
same,pIC50,LOX IMVI,6.50
same,pIC50,MZ7-mel,6.32
same,pIC50,EW-16,6.12
same,pIC50,RPMI-8226,< 5.89
same,pIC50,NB69,6.84
same,pIC50,GB-1,7.67
same,pIC50,NCI-H1355,6.96
same,pIC50,MOLT-16,< 5.89
same,pIC50,ES8,< 5.89
same,pIC50,JVM-3,< 5.89
same,pIC50,COLO-684,< 5.89
same,pIC50,NCI-H1648,7.70
same,pIC50,NCI-H526,< 5.89
same,pIC50,ACN,< 5.89
same,pIC50,NMC-G1,6.94
